Source: ChEMBL document CHEMBL5038669, “Development of the First Covalent Monopolar Spindle Kinase 1 (MPS1/TTK) Inhibitor” (J Med Chem, 2022)
pIC50, pKi: −log10 of the molar value. Activity calls are given as the source filed them. The rule behind the calls is not given here.

Tests used:
Hep 3B2 [1] = test: Induction of apoptosis in human Hep3B cells assessed as increase in cleaved caspase-3 level at 200 nM measured upto 5 days by Western blot analysis; type: functional, cell-based; conditions: time day <=5
Huh-7 [2] = test: Induction of cell senescence in human Huh-7 cells at 200 uM measured up to 5 days by SA-beta-gal-staining based assay; type: functional; conditions: time day <=5
Hep 3B2 [3] = test: Induction of cell senescence in human Hep3B cells at 200 uM measured up to 5 days by SA-beta-gal-staining based assay; type: functional; conditions: time day <=5
SNU-387 [4] = test: Induction of cell senescence in human SNU-387 cells at 200 uM measured up to 5 days by SA-beta-gal-staining based assay; type: functional; conditions: time day <=5
Hep 3B2 [5] = test: Synergistic antiproliferative activity against human Hep3B cells at 200 nM measured after 5 days in presence of navitoclax by crystal violet staining based assay; type: functional, cell-based; conditions: time 5.0 day
SNU-387 [6] = test: Synergistic antiproliferative activity against human SNU-387 cells at 200 nM measured after 5 days in presence of navitoclax by crystal violet staining based assay; type: functional, cell-based; conditions: time 5.0 day
[7] = molecular target: T1, Dual specificity protein kinase TTK (Homo sapiens, UniProt P33981); test: Inhibition of recombinant human full length N-terminal GST-fused MPS1 (1 to 857 residues) using histone H3 as substrate by TR-FRET assay
T1 sequence (P33981 whole entry): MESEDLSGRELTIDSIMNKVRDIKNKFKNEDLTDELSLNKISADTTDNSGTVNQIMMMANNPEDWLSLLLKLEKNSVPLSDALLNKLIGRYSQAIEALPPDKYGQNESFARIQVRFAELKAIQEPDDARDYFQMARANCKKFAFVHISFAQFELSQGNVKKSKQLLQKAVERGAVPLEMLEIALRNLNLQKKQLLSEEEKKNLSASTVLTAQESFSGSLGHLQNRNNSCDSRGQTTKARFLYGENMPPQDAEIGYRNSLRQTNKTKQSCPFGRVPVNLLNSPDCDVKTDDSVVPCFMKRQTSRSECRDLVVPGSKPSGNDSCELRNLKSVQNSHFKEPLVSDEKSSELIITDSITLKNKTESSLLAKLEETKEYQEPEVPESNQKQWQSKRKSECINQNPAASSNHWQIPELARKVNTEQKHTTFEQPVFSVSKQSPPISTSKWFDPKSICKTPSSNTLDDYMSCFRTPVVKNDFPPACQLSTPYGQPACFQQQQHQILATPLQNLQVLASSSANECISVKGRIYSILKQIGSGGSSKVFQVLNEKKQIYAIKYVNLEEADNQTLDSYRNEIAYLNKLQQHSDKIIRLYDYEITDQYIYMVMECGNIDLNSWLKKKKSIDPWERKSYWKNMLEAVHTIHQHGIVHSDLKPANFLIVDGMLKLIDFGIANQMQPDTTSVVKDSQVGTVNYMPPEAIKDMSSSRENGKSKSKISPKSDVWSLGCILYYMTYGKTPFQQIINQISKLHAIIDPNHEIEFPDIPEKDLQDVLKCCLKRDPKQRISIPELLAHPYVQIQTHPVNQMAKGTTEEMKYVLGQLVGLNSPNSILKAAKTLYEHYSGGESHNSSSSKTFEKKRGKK

[8] = molecular target: T2, Dual specificity protein kinase TTK (Homo sapiens) (UniProt P33981); test: Displacement of tracer K9 from NanoLuc-fused MPS1 (unknown origin) expressed in HEK293T cells at 10 fold IC50 preincubated for 2 hrs followed by compound washout by NanoBRET assay; type: cell-based
T2 sequence (whole entry): T1 sequence (P33981 whole entry)

COLO 205 = test: Antiproliferative activity against human COLO 205 cells; type: functional, cell-based
HT-29 = test: Antiproliferative activity against human HT-29 cells; type: functional, cell-based
HCC 2998 = test: Antiproliferative activity against human HCC 2998 cells; type: functional, cell-based
KM12 = test: Antiproliferative activity against human KM12 cells; type: functional, cell-based
HCT-15 = test: Antiproliferative activity against human HCT-15 cells; type: functional, cell-based
HCT-116 = test: Antiproliferative activity against human HCT-116 cells; type: functional, cell-based
SNU-387 [9] = test: Antiproliferative activity against human SNU-387 cells incubated for 5 days by XTT assay; type: functional, cell-based; conditions: time 5.0 day
SK-HEP1 = test: Antiproliferative activity against human SK-HEP1 cells incubated for 5 days by XTT assay; type: functional, cell-based; conditions: time 5.0 day
Hep 3B2 [10] = test: Antiproliferative activity against human Hep3B cells incubated for 5 days by XTT assay; type: functional, cell-based; conditions: time 5.0 day
HuH-6 = test: Antiproliferative activity against human HuH-6 cells incubated for 5 days by XTT assay; type: functional, cell-based; conditions: time 5.0 day
Huh-7 [11] = test: Antiproliferative activity against human Huh-7 cells incubated for 5 days by XTT assay; type: functional, cell-based; conditions: time 5.0 day
PLC-PRF-5 = test: Antiproliferative activity against human Alex cells incubated for 5 days by XTT assay; type: functional, cell-based; conditions: time 5.0 day
HLE = test: Antiproliferative activity against human HLE cells incubated for 5 days by XTT assay; type: functional, cell-based; conditions: time 5.0 day
HLF = test: Antiproliferative activity against human HLF cells incubated for 5 days by XTT assay; type: functional, cell-based; conditions: time 5.0 day
Huh-7 [12] = test: Induction of apoptosis in human Huh-7 cells assessed as increase in p21 expression level at 200 nM measured upto 5 days by Western blot analysis; type: functional, cell-based; conditions: time day <=5
Hep 3B2 [13] = test: Induction of apoptosis in human Hep3B cells assessed as increase in p21 expression level at 200 nM measured upto 5 days by Western blot analysis; type: functional, cell-based; conditions: time day <=5
SNU-387 [14] = test: Induction of apoptosis in human SNU-387 cells assessed as increase in p21 expression level at 200 nM measured upto 5 days by Western blot analysis; type: functional, cell-based; conditions: time day <=5
Huh-7 [15] = test: Induction of apoptosis in human Huh-7 cells assessed as increase in phospho-gammaH2A.X expression level at 200 nM measured upto 5 days by Western blot analysis; type: functional, cell-based; conditions: time day <=5
Hep 3B2 [16] = test: Induction of apoptosis in human Hep3B cells assessed as increase in phospho-gammaH2A.X expression level at 200 nM measured upto 5 days by Western blot analysis; type: functional, cell-based; conditions: time day <=5
SNU-387 [17] = test: Induction of apoptosis in human SNU-387 cells assessed as increase in phospho-gammaH2A.X expression level at 200 nM measured upto 5 days by Western blot analysis; type: functional, cell-based; conditions: time day <=5
[18] = molecular target: T3, Serine/threonine-protein kinase 17B (Homo sapiens) (UniProt O94768); conditions: dose 10.0 µM
T3 sequence (whole entry): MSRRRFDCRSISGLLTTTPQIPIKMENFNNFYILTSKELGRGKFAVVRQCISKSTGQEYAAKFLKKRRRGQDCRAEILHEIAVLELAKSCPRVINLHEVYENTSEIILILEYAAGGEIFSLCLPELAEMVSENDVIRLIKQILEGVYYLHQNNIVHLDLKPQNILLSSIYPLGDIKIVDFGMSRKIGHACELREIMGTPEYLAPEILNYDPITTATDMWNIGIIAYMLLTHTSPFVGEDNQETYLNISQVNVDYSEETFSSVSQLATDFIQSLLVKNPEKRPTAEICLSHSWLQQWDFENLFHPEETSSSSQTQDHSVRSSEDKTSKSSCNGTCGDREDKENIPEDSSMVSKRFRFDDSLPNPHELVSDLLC

pIC50 [7]: 7.89
pKi [7]: 9.08
Activity [8]: 50%
ΔTm [18]: 11.9 °C
Structure (SMILES): C=CC(=O)Nc1cc(N2CCN(C)CC2)ccc1Nc1ncc2c(n1)-n1ccc(C(=O)Nc3c(CC)cccc3CC)c1CC2
Activity (Hep 3B2 [1]): Active
Activity (Huh-7 [2]): Active
Activity (Hep 3B2 [3]): Active
Activity (SNU-387 [4]): Active
Activity (Hep 3B2 [5]): Active
Activity (SNU-387 [6]): Active
Activity (COLO 205): Active
Activity (HT-29): Active
Activity (HCC 2998): Active
Activity (KM12): Active
Activity (HCT-15): Active
Activity (HCT-116): Active
Activity (SNU-387 [9]): Active
Activity (SK-HEP1): Active
Activity (Hep 3B2 [10]): Active
Activity (HuH-6): Active
Activity (Huh-7 [11]): Active
Activity (PLC-PRF-5): Active
Activity (HLE): Active
Activity (HLF): Active
Activity (Huh-7 [12]): Active
Activity (Hep 3B2 [13]): Active
Activity (SNU-387 [14]): Active
Activity (Huh-7 [15]): Active
Activity (Hep 3B2 [16]): Active
Activity (SNU-387 [17]): Active
